# Reference: US20240270821A1, “GIP/GLP1/GCG TRI-RECEPTOR AGONISTS AND USES THEREOF” (priority 2023, published 2024)
# Read-outs that look alike come from different tables or passages of the source. Marks after values point to notes of the source that are not given here. Starred links: 1 amine or outer side, 2 acyl side, 3 side chain; linkers in the order of their positions; H or OH if unused. Non-standard residues stand in square brackets, D forms with d. Residues, ends and D or L forms follow the SMILES beside them. Groups on a side chain read outwards from the residue. No end group written: not given here. *: point of attachment. C18 diacid = O=C(O)CCCCCCCCCCCCCCCCC(=O)*; αMePhe(2-F) = C[C@](N)(Cc1ccccc1F)C(=O)O; γGlu = O=C(O)[C@H](CCC(=O)[*:2])N[*:1]; αMe4Pal = C[C@](N)(Cc1ccncc1)C(=O)O; αMeY = C[C@](N)(Cc1ccc(O)cc1)C(=O)O; 4Pal = N[C@@H](Cc1ccncc1)C(=O)O; αMeL = CC(C)C[C@](C)(N)C(=O)O; αMeS = C[C@](N)(CO)C(=O)O; Orn = NCCC[C@H](N)C(=O)O; AEEA = NCCOCCOCC(=O)O; Aib = CC(C)(N)C(=O)O
# What was measured:
# hGIPR [1] = target: T1, hGIPR (Homo sapiens, UniProt P48546); assay: Functional cAMP activity in the presence of 1% HSA; format: cell-based; details: read-out: cAMP Rel EC50, hGIPR
# T1 sequence (P48546 22-466): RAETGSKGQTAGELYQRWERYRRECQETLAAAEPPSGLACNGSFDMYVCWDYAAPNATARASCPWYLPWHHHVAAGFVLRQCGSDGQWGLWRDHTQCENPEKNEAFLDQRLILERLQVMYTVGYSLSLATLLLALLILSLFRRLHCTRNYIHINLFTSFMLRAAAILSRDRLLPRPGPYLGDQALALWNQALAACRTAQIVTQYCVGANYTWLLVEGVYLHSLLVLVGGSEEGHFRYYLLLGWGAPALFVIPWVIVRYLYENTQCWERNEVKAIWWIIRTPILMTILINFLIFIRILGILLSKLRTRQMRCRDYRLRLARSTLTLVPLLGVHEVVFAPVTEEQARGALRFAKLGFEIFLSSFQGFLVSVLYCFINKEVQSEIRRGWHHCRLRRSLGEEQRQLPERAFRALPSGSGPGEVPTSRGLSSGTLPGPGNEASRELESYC
# hGLP-1R [2] = target: T2, hGLP-1R (Homo sapiens, UniProt P43220); assay: Functional cAMP activity in the presence of 1% HSA; format: cell-based; details: read-out: cAMP Rel EC50, hGLP-1R
# T2 sequence (P43220 24-463): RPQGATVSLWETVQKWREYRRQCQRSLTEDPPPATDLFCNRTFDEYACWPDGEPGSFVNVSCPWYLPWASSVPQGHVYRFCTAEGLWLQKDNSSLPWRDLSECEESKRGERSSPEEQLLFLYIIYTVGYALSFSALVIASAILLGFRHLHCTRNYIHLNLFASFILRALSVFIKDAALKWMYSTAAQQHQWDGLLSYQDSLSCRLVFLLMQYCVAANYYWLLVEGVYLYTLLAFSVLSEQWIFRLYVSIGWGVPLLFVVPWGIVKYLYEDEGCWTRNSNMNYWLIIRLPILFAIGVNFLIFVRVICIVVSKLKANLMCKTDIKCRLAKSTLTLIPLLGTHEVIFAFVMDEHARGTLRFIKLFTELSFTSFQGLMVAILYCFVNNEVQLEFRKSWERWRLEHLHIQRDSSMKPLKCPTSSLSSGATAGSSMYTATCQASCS
# human GcgR = human GcgR (Homo sapiens, UniProt P47871); assay: Functional cAMP activity in the presence of 1% HSA; format: cell-based; details: read-out: cAMP Rel EC50, hGcgR
# human GcgR, sequence (P47871 26-477): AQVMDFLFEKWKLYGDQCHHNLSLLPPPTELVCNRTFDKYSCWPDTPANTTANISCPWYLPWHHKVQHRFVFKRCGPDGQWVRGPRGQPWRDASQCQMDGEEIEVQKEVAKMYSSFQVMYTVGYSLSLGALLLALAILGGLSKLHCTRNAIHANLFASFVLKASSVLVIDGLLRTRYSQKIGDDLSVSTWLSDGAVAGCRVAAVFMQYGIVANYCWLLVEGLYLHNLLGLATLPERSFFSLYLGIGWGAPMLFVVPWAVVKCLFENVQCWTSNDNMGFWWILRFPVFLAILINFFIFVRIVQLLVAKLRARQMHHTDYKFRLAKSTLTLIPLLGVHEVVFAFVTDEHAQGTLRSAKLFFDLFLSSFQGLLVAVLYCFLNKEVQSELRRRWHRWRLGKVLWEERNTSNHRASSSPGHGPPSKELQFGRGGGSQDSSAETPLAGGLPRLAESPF
# hGIPR [3] = target: T1, hGIPR; assay: Functional cAMP activation in the presence of 0.1% casein (no HSA); format: cell-based; details: read-out: Relative cAMP EC50, hGIPR;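 for Relative cAMP EC50, hGIPR: intracellular cAMP rise after 30 min at 37 °C read by HTRF against a standard curve, scaled between buffer alone (0%) and top control ligand concentration (100%), four-parameter fit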;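 for Relative cAMP EC50, hGLP-1R: intracellular cAMP rise after 30 min at 37 °C read by HTRF, normalized between buffer only (0%) and maximal control ligand (100%), four-parameter variable-slope fit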;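 for Relative cAMP EC50, hGcgR: intracellular cAMP rise after 30 min at 37 °C, read by HTRF against a cAMP standard curve, scaled from buffer only (0%) to maximal control ligand response (100%)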
# hGLP-1R [4] = target: T2, hGLP-1R; assay: as above; format: cell-based; details: read-out: Relative cAMP EC50, hGLP-1R
# hGcgR = hGcgR (Homo sapiens, UniProt P47871); assay: as above; format: cell-based; details: read-out: Relative cAMP EC50, hGcgR;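 note: intracellular cAMP rise after 30 min at 37 °C, read by HTRF against a cAMP standard curve, scaled from buffer only (0%) to maximal control ligand response (100%)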
# hGcgR, sequence (P47871 26-477): as above
# in vivo = assay: in vivo; design: species or system Sprague Dawley rats; details: male, Sprague Dawley, rat, 4 mg/kg
# Method: The pharmacokinetics of the exemplary analogs are evaluated following a single subcutaneous (SC) administration of 10 nmol/kg (dissolved in 40 mM Tris pH8) or single 4 mg/kg (mixed with 250 mM sodium decanoate/C10 in 40 mM Tris pH8) intrajejunal (IJ) administration to male Sprague Dawley rats. Blood samples are collected over 96 hours following SC administration and 72 hours following IJ dosing, and resulting individual plasma concentrations are used to calculate pharmacokinetic parameters. Peptide plasma (K3 EDTA) concentrations are determined using a qualified LC/MS method that measured the intact mass of the analog. Each peptide and an analog as an internal standard are extracted from rat plasma using methanol. A High Resolution Instrument was used for LC/MS detection.
# [5] = Body weight in diet-induced obese C57BL/6 mice; format: in vivo; details: 10 nmol/kg SC QD, percent of starting weight, DIO mice, mean ± SEM n=5
# Procedure, shortened: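 Male C57BL/6 DIO mice (41-50 g, 5 per group, randomized by weight) on calorie-rich diet received subcutaneous doses 30-90 min before dark onset, QD or Q3D for 9-16 days. Body weight measured daily, expressed as percent of starting weight, mean±SEM.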
# [6] = in the presence of 0.1% casein (no HSA), geometric mean
Molecule,EC50 (hGIPR [1]),EC50 (hGLP-1R [2]),EC50 (human GcgR),EC50 (hGIPR [3]; [6]),EC50 (hGLP-1R [4]; [6]),EC50 (hGcgR; [6]),CL/F (in vivo),half-life (in vivo),Body weight (%) ([5]; 14 days),Body weight (%) ([5]; 15 days),EC50 (hGIPR [3]),EC50 (hGLP-1R [4]),EC50 (hGcgR),Body weight (%) ([5]; 9 days)
CC[C@H](C)[C@H](NC(=O)[C@H](Cc1ccccc1)NC(=O)[C@H](CCCN)NC(=O)C(C)(C)NC(=O)[C@H](CCC(N)=O)NC(=O)[C@H](C)NC(=O)[C@H](CCCCNC(=O)COCCOCCNC(=O)CC[C@H](NC(=O)CCCCCCCCCCCCCCCCC(=O)O)C(=O)O)NC(=O)[C@H](CCCN)NC(=O)[C@H](CC(=O)O)NC(=O)[C@H](CC(C)C)NC(=O)[C@](C)(CC(C)C)NC(=O)[C@@H](NC(=O)[C@](C)(CO)NC(=O)[C@H](Cc1ccc(O)cc1)NC(=O)[C@H](CC(=O)O)NC(=O)[C@H](CO)NC(=O)[C@@H](NC(=O)[C@](C)(Cc1ccccc1F)NC(=O)[C@@H](NC(=O)CNC(=O)[C@H](CCC(N)=O)NC(=O)C(C)(C)NC(=O)[C@@H](N)Cc1ccc(O)cc1)[C@@H](C)O)[C@@H](C)O)[C@@H](C)CC)C(=O)N[C@H](CCC(=O)O)C(=O)N[C@@](C)(Cc1ccc(O)cc1)C(=O)N[C@@H](CC(C)C)C(=O)N[C@@H](CC(C)C)C(=O)N[C@@H](CCC(=O)O)C(=O)NCC(=O)NCC(=O)N1CCC[C@H]1C(=O)N[C@@H](CO)C(=O)N[C@@H](CO)C(=O)NCC(=O)N[C@@H](CCC(=O)O)C(=O)N1CCC[C@H]1C(=O)N1CCC[C@H]1C(=O)N1CCC[C@H]1C(=O)N[C@@H](CO)C(N)=O [Example 368] (H-Y[Aib]QGT[αMePhe(2-F)]TSDY[αMeS]I[αMeL]LD[Orn]K([AEEA-γGlu-C18 diacid])AQ[Aib][Orn]FI[dE][αMeY]LLEGGPSSGEPPPS-NH2),2.62 nM,37.4 nM,111 nM,0.0121 nM,0.242 nM,0.481 nM,7.33 mL/min/kg,9.6 h,52.52 +/− 2.49**** %,,,,,
CC[C@H](C)[C@H](NC(=O)[C@H](Cc1ccccc1)NC(=O)[C@H](CCCN)NC(=O)C(C)(C)NC(=O)[C@H](CCC(N)=O)NC(=O)[C@H](C)NC(=O)[C@H](CCCCNC(=O)COCCOCCNC(=O)CC[C@H](NC(=O)CCCCCCCCCCCCCCCCC(=O)O)C(=O)O)NC(=O)[C@H](CCCN)NC(=O)[C@H](CC(=O)O)NC(=O)[C@H](CC(C)C)NC(=O)[C@](C)(CC(C)C)NC(=O)[C@@H](NC(=O)[C@](C)(CO)NC(=O)[C@H](Cc1ccncc1)NC(=O)[C@H](CC(=O)O)NC(=O)[C@H](CO)NC(=O)[C@@H](NC(=O)[C@](C)(Cc1ccccc1F)NC(=O)[C@@H](NC(=O)CNC(=O)[C@H](CCC(N)=O)NC(=O)C(C)(C)NC(=O)[C@@H](N)Cc1ccc(O)cc1)[C@@H](C)O)[C@@H](C)O)[C@@H](C)CC)C(=O)N[C@H](CCC(=O)O)C(=O)N[C@@](C)(Cc1ccc(O)cc1)C(=O)N[C@@H](CC(C)C)C(=O)N[C@@H](CC(C)C)C(=O)N[C@@H](CCC(=O)O)C(=O)NCC(=O)NCC(=O)N1CCC[C@H]1C(=O)N[C@@H](CO)C(=O)N[C@@H](CO)C(=O)NCC(=O)N[C@@H](CCC(=O)O)C(=O)N1CCC[C@H]1C(=O)N1CCC[C@H]1C(=O)N1CCC[C@H]1C(=O)N[C@@H](CO)C(N)=O [Example 369] (H-Y[Aib]QGT[αMePhe(2-F)]TSD[4Pal][αMeS]I[αMeL]LD[Orn]K([AEEA-γGlu-C18 diacid])AQ[Aib][Orn]FI[dE][αMeY]LLEGGPSSGEPPPS-NH2),4.58 nM,26.8 nM,111 nM,0.0263 nM,0.301 nM,0.873 nM,11.3 mL/min/kg,8.2 h,52.91 +/− 2.17**** %,,,,,
CC[C@H](C)[C@H](NC(=O)[C@H](CC(C)C)NC(=O)[C@](C)(Cc1ccc(O)cc1)NC(=O)[C@@H](CCC(=O)O)NC(=O)[C@@H](NC(=O)[C@H](Cc1ccccc1)NC(=O)[C@H](CCCN)NC(=O)C(C)(C)NC(=O)[C@H](CCC(N)=O)NC(=O)[C@H](C)NC(=O)[C@H](CCCCNC(=O)COCCOCCNC(=O)CC[C@H](NC(=O)CCCCCCCCCCCCCCCCC(=O)O)C(=O)O)NC(=O)[C@H](CCCN)NC(=O)[C@H](CC(=O)O)NC(=O)[C@H](CC(C)C)NC(=O)[C@](C)(CC(C)C)NC(=O)[C@@H](NC(=O)[C@](C)(CO)NC(=O)[C@H](Cc1ccncc1)NC(=O)[C@H](CC(=O)O)NC(=O)[C@H](CO)NC(=O)[C@@H](NC(=O)[C@](C)(Cc1ccccc1F)NC(=O)[C@@H](NC(=O)CNC(=O)[C@H](CCC(N)=O)NC(=O)C(C)(C)NC(=O)[C@@H](N)Cc1ccc(O)cc1)[C@@H](C)O)[C@@H](C)O)[C@@H](C)CC)[C@@H](C)CC)C(=O)N[C@@H](CCC(=O)O)C(=O)NCC(=O)NCC(=O)N1CCC[C@H]1C(=O)N[C@@H](CO)C(=O)N[C@@H](CO)C(=O)NCC(=O)N[C@@H](CCC(=O)O)C(=O)N1CCC[C@H]1C(=O)N1CCC[C@H]1C(=O)N1CCC[C@H]1C(=O)N[C@@H](CCC(=O)O)C(N)=O [Example 378] (H-Y[Aib]QGT[αMePhe(2-F)]TSD[4Pal][αMeS]I[αMeL]LD[Orn]K([AEEA-γGlu-C18 diacid])AQ[Aib][Orn]FI[dE][αMeY]LIEGGPSSGEPPPE-NH2),2.15 nM,18.8 nM,176 nM,0.0213 nM,0.251 nM,1.45 nM,3.83 mL/min/kg,8.2 h,,68.84 +/− 1.37**** %,,,,
H-Y[Aib]QGT[αMePhe(2-F)]TSD[4Pal]SI[αMeL]LD[Orn]K([AEEA-γGlu-C18 diacid])AQ[αMe4Pal][Orn]FI[dE][αMeY]LIEGGPSSGEPPPEEG-NH2 [Example 475],1.85 nM,18.6 nM,254 nM,,,,3.5 mL/min/kg,13.7 h,,,0.0173 nM,0.254 nM,2.24 nM,69.34 ± 2.99 %
H-Y[Aib]QGT[αMePhe(2-F)]TSD[4Pal][αMeS]I[αMeL]LD[Orn]K([AEEA-AEEA-γGlu-C18 diacid])AQ[Aib][Orn]FI[dE][αMeY]LIEGGPSSGAPEPSEG-NH2 [Example 472],0.927 nM,7.88 nM,229 nM,,,,7.33 mL/min/kg,9.4 h,,,0.015 nM,0.171 nM,2.73 nM,76.13 ± 2.28 %
H-Y[Aib]QGT[αMePhe(2-F)]TSD[4Pal][αMeS]I[αMeL]LD[Orn]K([AEEA-γGlu-C18 diacid])AQ[Aib][Orn]FI[dE][αMeY]LIEGGPSSGEPPPEEG-NH2 [Example 462],1.62 nM,12.9 nM,183 nM,,,,10 mL/min/kg,11 h,,,0.0148 nM,0.204 nM,1.69 nM,73.68 ± 2.82 %
H-Y[Aib]QGT[αMePhe(2-F)]TSD[4Pal][αMeS]I[αMeL]LD[Orn]K([AEEA-γGlu-C18 diacid])AQ[Aib][Orn]FI[dE][αMeY]LIEGGPSSGEPPPSEG-NH2 [Example 401],1.71 nM,12 nM,111 nM,,,,16.3 mL/min/kg,6.6 h,,71.54 ± 3.32 %,0.0183 nM,0.213 nM,1.99 nM,
Y[Aib]QGT[αMePhe(2-F)]TSD[4Pal][αMeS]I[αMeL]LD[Orn]K([AEEA-γGlu-C18 diacid])AQ[Aib][Orn]FI[dE]YLIEGGPSSGEPPPSEG-NH2 [Example 463],6.36 nM,24.7 nM,496 nM,,,,16.2 mL/min/kg,8.3 h,,,0.0558 nM,0.362 nM,4.27 nM,83.31 ± 2.10 %
Y[Aib]QGT[αMePhe(2-F)]TSD[4Pal][αMeS]I[αMeL]LD[Orn]K([AEEA-γGlu-C18 diacid])AQ[Aib][Orn]FI[dE][αMeY]LIEGGPSSGAPEPSEG-NH2 [Example 429],1.89 nM,12.1 nM,138 nM,,,,10.7 mL/min/kg,7.8 h,,70.20 ± 1.63 %,0.0142 nM,0.178 nM,1.19 nM,74.66 ± 3.87 %
